This assay concerns the target Recombinant GMPPNP-loaded KRAS G12C (KRAS-G12C(ON), active form) (Homo sapiens, UniProt P01116, G12C). The assay is described as follows: KRAS G12C RAF Disruption Assay (HTRF). Type of assay: biochemical. The following applies: GMPPNP-loaded KRAS G12C 5 nM, GST-RAF1 RBD 9 nM, read-out: KRASG12C RAF Disruption Assay (IC50). In outline: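 GMPPNP-loaded KRAS G12C (5 nM) preincubated with compound 20 min at room temperature in Tris pH 7.5 buffer with MgCl2, DTT and BSA. GST-RAF1 RBD (9 nM) then added for 20 min, and SA-Tb (0.25 nM) for 3 h. HTRF 520/495 ratio read; IC50 taken from the dose-response curve.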

Like-named read-outs stand apart in the source and are kept apart here.

Regarding `CN1CCC[C@H]1COc1nc(N2CCN(C(=O)/C(F)=C/c3ccccn3)[C@@H](CC#N)C2)c2ccc(-c3cc(O)cc4ccccc34)c(F)c2n1` [Example 24, 2-((S)-1-((Z)-2-fluoro-3-(pyridin-2-yl)acryloyl)-4-(8-fluoro-7-(3-hydroxynaphthalen-1-yl)-2-(((S)-1-methylpyrrolidin-2-yl)methoxy)quinazolin-4-yl)piperazin-2-yl)acetonitrile], the IC50 (usually the point on the concentration scale where inhibition reaches its midpoint) (values in nM) came to 22 nM.

Take `CN1CCC[C@H]1COc1nc(N2CCN(C(=O)/C(F)=C/c3nccs3)CC2)c2ccc(-c3cc(O)cc4ccccc34)c(F)c2n1` [Example 29, (S,Z)-2-fluoro-1-(4-(8-fluoro-7-(3-hydroxynaphthalen-1-yl)-2-((1-methylpyrrolidin-2-yl)methoxy)quinazolin-4-yl)piperazin-1-yl)-3-(thiazol-2-yl)prop-2-en-1-one]: under “values in nM”, the IC50 was 180 nM.

For “(Z)-1-(3-((7M)-7-(6-amino-4-methyl-3-(trifluoromethyl)pyridin-2-yl)-6-chloro-8-fluoro-2-(((2R,7aR)-2-fluorotetrahydro-1H-pyrrolizin-7a(5H)-yl)methoxy)quinazolin-4-yl)-3,9-diazabicyclo[3.3.1]nonan-9-yl)-2-fluoro-3-(thiazol-2-yl)prop-2-en-1-one [Example 14]”, for the setting “values given in μM”, the IC50 is 2100 nM.

For `COc1ccc(Cl)cc1-c1ccc2c(N3CCN(C(=O)/C(F)=C/c4nccs4)[C@@H](CC#N)C3)nc(OC[C@@H]3CCCN3C)nc2c1F` [Example 62, 2-((S)-4-(7-(5-chloro-2-methoxyphenyl)-8-fluoro-2-(((S)-1-methylpyrrolidin-2-yl)methoxy)quinazolin-4-yl)-1-((Z)-2-fluoro-3-(thiazol-2-yl)acryloyl)piperazin-2-yl)acetonitrile], the IC50 (values in nM) amounted to 3100 nM.

In the case of `C[C@H]1CN(C(=O)/C(F)=C/c2ccccn2)CCN1c1nc(OC[C@@H]2CCCN2C)nc2c(F)c(-c3cccc4cccc(Cl)c34)c(Cl)cc12` (single isomer, unassigned) [Example 3], for the setting “values given in μM”, the IC50 stood at 5500 nM.

As to `CN1CCC[C@H]1COc1nc(N2CCN(C(=O)/C(F)=C/c3ccccn3)[C@@H](CC#N)C2)c2ccc(-c3cc(Cl)ccc3OC(F)(F)F)c(F)c2n1` [Example 65, 2-((S)-4-(7-(5-chloro-2-(trifluoromethoxy)phenyl)-8-fluoro-2-(((S)-1-methylpyrrolidin-2-yl)methoxy)quinazolin-4-yl)-1-((Z)-2-fluoro-3-(pyridin-2-yl)acryloyl)piperazin-2-yl)acetonitrile], the IC50 (values in nM) came out at 2100 nM.

For `CN1CCC[C@H]1COc1nc(N2CCN(C(=O)/C(F)=C/c3ncccn3)[C@@H](CC#N)C2)c2ccc(-c3c(O)cccc3F)c(F)c2n1` [Example 55, 2-((2S)-1-((Z)-2-fluoro-3-(pyrimidin-2-yl)acryloyl)-4-(8-fluoro-7-(2-fluoro-6-hydroxyphenyl)-2-(((S)-1-methylpyrrolidin-2-yl)methoxy)quinazolin-4-yl)piperazin-2-yl)acetonitrile], under “values in nM”, the concentration for half-maximal inhibition (IC50) was determined as 1000 nM.

With `Cc1cc(N)nc(-c2c(Cl)cc3c(N4C[C@]5(NC(=O)/C(F)=C/c6ccccn6)CC[C@H]4C5)nc(OC[C@]45CCCN4C[C@H](F)C5)nc3c2F)c1C(F)(F)F` (atropisomer, axis not shown; (M)) [Example 43, (2Z)-N-[(1S,4S)-2-[(7M)-2-{[(2R,7aR)-2-fluoro-hexahydro-1H-pyrrolizin-7a-yl]methoxy}-7-[6-amino-4-methyl-3-(trifluoromethyl)pyridin-2-yl]-6-chloro-8-fluoroquinazolin-4-yl]-2-azabicyclo[2.2.1]heptan-4-yl]-2-fluoro-3-(pyridin-2-yl)prop-2-enamide], for the setting “values in nM”, the IC50 was 190 nM.

As for `COCCCN1CCC(Oc2nc(N3CCN(C(=O)/C(F)=C/c4nccs4)[C@@H](CC#N)C3)c3ccc(-c4cccc5cccc(Cl)c45)c(F)c3n2)CC1` [Example 74, (S,Z)-2-(4-(7-(8-chloronaphthalen-1-yl)-8-fluoro-2-((1-(3-methoxypropyl)piperidin-4-yl)oxy)quinazolin-4-yl)-1-(2-fluoro-3-(thiazol-2-yl)acryloyl)piperazin-2-yl)acetonitrile], the half-maximal inhibitory concentration (IC50) (values in nM) was determined as 1500 nM.

For `C#Cc1cccc2cccc(-c3ccc4c(N(C)[C@@H]5CCN(C(=O)/C(F)=C/c6ccccn6)C5)nc(OC[C@@]56CCCN5C[C@H](F)C6)nc4c3F)c12` [Example 81, (Z)-1-((R)-3-((7-(8-ethynylnaphthalen-1-yl)-8-fluoro-2-(((2R,7aS)-2-fluorotetrahydro-1H-pyrrolizin-7a(5H)-yl)methoxy)quinazolin-4-yl)(methyl)amino)pyrrolidin-1-yl)-2-fluoro-3-(pyridin-2-yl)prop-2-en-1-one], the IC50 (values in nM) was found to be 20 nM.

On to `Cc1cc(N)nc(-c2c(Cl)cc3c(N4CCC5C4CCN5C(=O)/C(F)=C/c4nccs4)nc(OC[C@]45CCCN4C[C@H](F)C5)nc3c2F)c1C(F)(F)F` (single isomer, unassigned) [Example 25, Isomer 1], for which the IC50 (values given in μM) is 14100 nM.

With `C[C@H]1CN(C(=O)/C(F)=C/c2nccs2)CCN1c1nc(OC[C@@H]2CCCN2C)nc2c(F)c(-c3cccc4cccc(Cl)c34)c(Cl)cc12` [Example 1, (Z)-1-((3S)-4-(6-chloro-7-(8-chloronaphthalen-1-yl)-8-fluoro-2-(((S)-1-methylpyrrolidin-2-yl)methoxy)quinazolin-4-yl)-3-methylpiperazin-1-yl)-2-fluoro-3-(thiazol-2-yl)prop-2-en-1-one], the IC50 (values given in μM) was 49000 nM.

On to `CN1CCC[C@H]1COc1nc(N2CCN(C(=O)/C(F)=C/c3ncccn3)[C@@H](CC#N)C2)c2ccc(-c3cccc4cccc(Cl)c34)c(F)c2n1` [Example 38, 2-((S)-1-((Z)-2-fluoro-3-(pyrimidin-2-yl)acryloyl)-4-(8-fluoro-7-(8-chloronaphthalen-1-yl)-2-(((S)-1-methylpyrrolidin-2-yl)methoxy)quinazolin-4-yl)piperazin-2-yl)acetonitrile], for which, for the setting “values in nM”, the IC50 amounted to 130 nM.

Turning to `C#Cc1c(F)ccc2cc(O)cc(-c3ccc4c(N5C[C@H]6CC[C@@H](C5)N6C(=O)/C(F)=C/c5ccccn5)nc(OC[C@@H]5CCCN5C)nc4c3F)c12` [Example 22, (Z)-1-((1R,5S)-3-(7-(8-ethynyl-7-fluoro-3-hydroxynaphthalen-1-yl)-8-fluoro-2-(((S)-1-methylpyrrolidin-2-yl)methoxy)quinazolin-4-yl)-3,8-diazabicyclo[3.2.1]octan-8-yl)-2-fluoro-3-(pyridin-2-yl)prop-2-en-1-one], where the note is “values in nM”, the IC50 was determined as 260 nM.

For `C#Cc1c(F)ccc2cc(O)cc(-c3ccc4c(N5C[C@H]6CC[C@@H](C5)N6C(=O)/C(F)=C/c5ncccn5)nc(OC[C@@H]5CCCN5C)nc4c3F)c12` [Example 30, (Z)-1-((1R,5S)-3-(7-(8-ethynyl-7-fluoro-3-hydroxynaphthalen-1-yl)-8-fluoro-2-(((S)-1-methylpyrrolidin-2-yl)methoxy)quinazolin-4-yl)-3,8-diazabicyclo[3.2.1]octan-8-yl)-2-fluoro-3-(pyrimidin-2-yl)prop-2-en-1-one], the IC50 (values given in μM) is 21300 nM.

As to `Cc1cc(N)nc(-c2c(Cl)cc3c(N4CCN(C(=O)/C(F)=C/c5nccs5)[C@@H](CC(N)=O)C4)nc(OC[C@@H]4CCCN4C)nc3c2F)c1C(F)(F)F` (atropisomer, axis not shown; (M)) [Example 47, 2-[(2S)-4-[(7M)-7-[6-amino-4-methyl-3-(trifluoromethyl)pyridin-2-yl]-6-chloro-8-fluoro-2-{[(2S)-1-methylpyrrolidin-2-yl]methoxy}quinazolin-4-yl]-1-[(2Z)-2-fluoro-3-(thiazol-2-yl)prop-2-enoyl]piperazin-2-yl]acetamide], the IC50 (values given in μM) came to 1330 nM.

Take `Cc1cc2[nH]ncc2c(-c2ccc3c(N(C)[C@@H]4CCN(C(=O)/C(F)=C/c5ccccn5)C4)nc(OC[C@@]45CCCN4C[C@H](F)C5)nc3c2F)c1Cl` [Example 83, (Z)-1-((3R)-3-((7-(5-chloro-6-methyl-1H-indazol-4-yl)-8-fluoro-2-(((2R,7aS)-2-fluorotetrahydro-1H-pyrrolizin-7a(5H)-yl)methoxy)quinazolin-4-yl)(methyl)amino)pyrrolidin-1-yl)-2-fluoro-3-(pyridin-2-yl)prop-2-en-1-one]: the IC50 (values in nM) came to 22 nM.

On to `CN1CCC[C@H]1COc1nc(N2CCN(C(=O)/C(F)=C/c3nccs3)[C@@H](CC#N)C2)c2ccc(-c3cc(O)cc4ccccc34)c(F)c2n1` [Example 23, 2-((S)-1-((Z)-2-fluoro-3-(thiazol-2-yl)acryloyl)-4-(8-fluoro-7-(3-hydroxynaphthalen-1-yl)-2-(((S)-1-methylpyrrolidin-2-yl)methoxy)quinazolin-4-yl)piperazin-2-yl)acetonitrile], for which the IC50 (values in nM) amounted to 16 nM.

With `Cc1ccc2[nH]ncc2c1-c1ccc2c(N3CCN(C(=O)/C(F)=C/c4ncccn4)[C@@H](CC#N)C3)nc(OC[C@@H]3CCCN3C)nc2c1F` [Example 52, 2-((2S)-1-((Z)-2-fluoro-3-(pyrimidin-2-yl)acryloyl)-4-(8-fluoro-7-(5-methyl-1H-indazol-4-yl)-2-(((S)-1-methylpyrrolidin-2-yl)methoxy)quinazolin-4-yl)piperazin-2-yl)acetonitrile], the IC50 (values in nM) came to 450 nM.

As for `C#Cc1cccc2cccc(-c3ccc4c(N5CCN(C(=O)/C(F)=C/c6nccs6)C[C@@H]5C)nc(OC[C@@]56CCCN5C[C@H](F)C6)nc4c3F)c12` [Example 89, (Z)-1-((S)-4-(7-(8-ethynylnaphthalen-1-yl)-8-fluoro-2-(((2R,7aS)-2-fluorotetrahydro-1H-pyrrolizin-7a(5H)-yl)methoxy)quinazolin-4-yl)-3-methylpiperazin-1-yl)-2-fluoro-3-(thiazol-2-yl)prop-2-en-1-one], the IC50 (values in nM) turned out to be 380 nM.

For the origin of these results see patent publication US20250263424A1, “KRAS INHIBITORS” (Bristol-Myers Squibb Company, priority 2022, published 2025).
